Data as given in US8642592B2, “Oxo-heterocyclically substituted alkyl carboxylic acids and use thereof” (Bayer Intellectual Property GmbH, priority 2009, dated 2014).

How the values were obtained:
Heme-free sGC = molecular target: T1, Heme-free sGC (Rattus norvegicus, UniProt P20595); assay: Stimulation of recombinant soluble guanylate cyclase in vitro, heme-free enzyme; assay type: biochemical
T1 construct: made in house; host or cells: baculovirus/Sf9 insect cells
T1 sequence (P20595 1-619): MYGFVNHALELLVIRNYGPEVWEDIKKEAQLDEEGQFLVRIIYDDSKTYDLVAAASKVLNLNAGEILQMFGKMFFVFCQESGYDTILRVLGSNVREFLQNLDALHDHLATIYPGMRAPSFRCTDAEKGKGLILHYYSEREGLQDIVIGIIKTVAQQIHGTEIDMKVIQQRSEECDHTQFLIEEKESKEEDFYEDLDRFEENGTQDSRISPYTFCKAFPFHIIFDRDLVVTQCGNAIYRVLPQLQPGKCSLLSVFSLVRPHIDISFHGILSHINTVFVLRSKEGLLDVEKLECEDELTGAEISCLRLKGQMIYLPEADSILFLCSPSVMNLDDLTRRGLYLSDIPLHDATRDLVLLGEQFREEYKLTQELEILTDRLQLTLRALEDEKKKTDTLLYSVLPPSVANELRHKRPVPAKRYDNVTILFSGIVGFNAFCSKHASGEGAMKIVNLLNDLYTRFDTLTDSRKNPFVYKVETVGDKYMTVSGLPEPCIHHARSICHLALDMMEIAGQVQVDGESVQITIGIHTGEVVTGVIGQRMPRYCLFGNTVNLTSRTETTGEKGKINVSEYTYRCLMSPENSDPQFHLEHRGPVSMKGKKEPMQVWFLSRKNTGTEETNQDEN
T1 sequence (P19686 1-690 partner): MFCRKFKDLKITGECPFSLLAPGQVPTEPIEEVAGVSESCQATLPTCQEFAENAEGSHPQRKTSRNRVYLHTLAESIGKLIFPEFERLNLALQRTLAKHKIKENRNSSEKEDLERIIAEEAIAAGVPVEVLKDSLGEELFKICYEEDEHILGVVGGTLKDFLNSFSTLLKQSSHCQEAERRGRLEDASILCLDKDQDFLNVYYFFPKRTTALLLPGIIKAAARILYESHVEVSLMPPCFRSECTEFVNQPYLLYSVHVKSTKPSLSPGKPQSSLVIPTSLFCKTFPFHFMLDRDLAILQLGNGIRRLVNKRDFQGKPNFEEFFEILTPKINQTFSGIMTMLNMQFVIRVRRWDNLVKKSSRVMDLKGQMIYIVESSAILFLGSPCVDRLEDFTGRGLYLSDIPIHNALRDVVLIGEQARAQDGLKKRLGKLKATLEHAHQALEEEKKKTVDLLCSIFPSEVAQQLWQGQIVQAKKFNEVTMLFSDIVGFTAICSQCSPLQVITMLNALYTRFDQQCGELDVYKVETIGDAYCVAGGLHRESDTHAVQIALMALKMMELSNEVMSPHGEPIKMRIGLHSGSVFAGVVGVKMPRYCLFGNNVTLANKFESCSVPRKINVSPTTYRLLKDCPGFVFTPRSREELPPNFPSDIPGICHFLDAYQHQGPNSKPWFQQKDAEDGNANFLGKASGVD
Method: Investigations on the stimulation of recombinant soluble guanylate cyclase (sGC) by the compounds according to the invention with and without sodium nitroprusside, and with and without the heme-dependent sGC inhibitor 1H-1,2,4-oxadiazolo-(4,3a)-quinoxalin-1-one (ODQ) are carried out by the method described in detail in the following reference: M. Hoenicka, E. M. Becker, H. Apeler, T. Sirichoke, H. Schroeder, R. Gerzer and J.-P. Stasch, “Purified soluble guanylyl cyclase expressed in a baculovirus/Sf9 system: Stimulation by YC-1, nitric oxide, and carbon oxide”, J. Mol. Med. 77 (1999), 14-23. The heme-free guanylate cyclase is obtained by adding Tween 20 to the sample buffer (0.5% in the final concentration).
(§1) The activation of sGC by a test substance is reported as n-fold stimulation of the basal activity.

Heme-containing sGC = molecular target: T2, Heme-containing sGC (Rattus norvegicus, UniProt P20595); assay: Stimulation of recombinant soluble guanylate cyclase in vitro, heme-containing enzyme; assay type: biochemical
T2 construct: made in house; host or cells: baculovirus/Sf9 insect cells
T2 sequence (P20595 1-619): T1 sequence (P20595 1-619)
T2 sequence (P19686 1-690 partner): T1 sequence (P19686 1-690 partner)
Text: Hoenicka, E. M. Becker, H. Apeler, T. Sirichoke, H. Schroeder, R. Gerzer and J.-P. Stasch, “Purified soluble guanylyl cyclase expressed in a baculovirus/Sf9 system: Stimulation by YC-1, nitric oxide, and carbon oxide”, J. Mol. Med. 77 (1999), 14-23. The heme-free guanylate cyclase is obtained by adding Tween 20 to the sample buffer (0.5% in the final concentration).
as §1

O=C(NCCCCC1(C(=O)O)CC1)C(c1ccc(CN2N=C(c3ccccc3)OCC2=O)cc1)C1CCCC1 (single isomer, unassigned; (+)) [Example 1, (+)-1-(4-{[2-cyclopentyl-2-{4-[(5-oxo-2-phenyl-5,6-dihydro-4H-1,3,4-oxadiazin-4-yl)methyl]phenyl}-acetyl]amino}butyl)cyclopropanecarboxylic acid]
Stimulation (n-fold) of heme-free sGC, Basal (Heme-free sGC; 0.1 μM Example 1): 1.4 n-fold | Stimulation (n-fold) of heme-free sGC, Basal (Heme-free sGC; 1 μM Example 1): 1.7 n-fold | Stimulation (n-fold) of heme-free sGC, Basal (Heme-free sGC; 10 μM Example 1): 8.4 n-fold | Stimulation (n-fold) of heme-free sGC, Basal (Heme-free sGC; 100 μM Example 1): 111.8 n-fold | Stimulation (n-fold) of heme-containing sGC, Basal (Heme-containing sGC; 0.1 μM Example 1): 1.5 n-fold | Stimulation (n-fold) of heme-containing sGC, +0.1 μM DEA/NO (Heme-containing sGC; 0.1 μM Example 1 + 0.1 μM DEA/NO): 21.9 n-fold | Stimulation (n-fold) of heme-containing sGC, +10 μM ODQ (Heme-containing sGC; 0.1 μM Example 1 + 10 μM ODQ): 3.0 n-fold | Stimulation (n-fold) of heme-containing sGC, Basal (Heme-containing sGC; 1 μM Example 1): 1.4 n-fold | Stimulation (n-fold) of heme-containing sGC, +0.1 μM DEA/NO (Heme-containing sGC; 1 μM Example 1 + 0.1 μM DEA/NO): 19.3 n-fold | Stimulation (n-fold) of heme-containing sGC, +10 μM ODQ (Heme-containing sGC; 1 μM Example 1 + 10 μM ODQ): 3.7 n-fold | Stimulation (n-fold) of heme-containing sGC, Basal (Heme-containing sGC; 10 μM Example 1): 2.6 n-fold | Stimulation (n-fold) of heme-containing sGC, +0.1 μM DEA/NO (Heme-containing sGC; 10 μM Example 1 + 0.1 μM DEA/NO): 20.0 n-fold | Stimulation (n-fold) of heme-containing sGC, +10 μM ODQ (Heme-containing sGC; 10 μM Example 1 + 10 μM ODQ): 10.3 n-fold | Stimulation (n-fold) of heme-containing sGC, Basal (Heme-containing sGC; 100 μM Example 1): 14.0 n-fold | Stimulation (n-fold) of heme-containing sGC, +0.1 μM DEA/NO (Heme-containing sGC; 100 μM Example 1 + 0.1 μM DEA/NO): 37.8 n-fold | Stimulation (n-fold) of heme-containing sGC, +10 μM ODQ (Heme-containing sGC; 100 μM Example 1 + 10 μM ODQ): 46.6 n-fold | Effect of combination with the NO donor DEA/NO on sGC stimulation (Heme-containing sGC; combination with DEA/NO, heme-containing sGC): no synergistic effect | Effect of the heme-dependent sGC inhibitor ODQ on sGC activation (Heme-containing sGC; with ODQ, heme-containing sGC, effect is in fact increased): not blocked
